The subject of data set [1] is A/Seoul/11/1988 (H3N2). The data set can be described thus: microbe, parasite or virus in culture. To be noted: Influenza A virus, H3N2, MDCK, 72 h, read-out: EC50 against A/Seoul/11/1988 (H3N2).
The test system of data set [2] is A/Brisbane/59/2007 (H1N1). The data set can be described thus: microbe, parasite or virus in culture. The note with it: Influenza A virus, H1N1, MDCK, 72 h, read-out: EC50 against A/Brisbane/59/2007 (H1N1).
Data set [3] deals with A/Brisbane/10/2007 (H3N2). Nature of the data set: microbe, parasite or virus in culture. To be noted: Influenza A virus, H3N2, MDCK, 72 h, read-out: EC50 against A/Brisbane/10/2007 (H3N2).
Data set [4] concerns A/Victoria/361/2011-like (H3N2). The data set can be described thus: microbe, parasite or virus in culture. The note with it: Influenza A virus, H3N2, MDCK, 72 h, read-out: EC50 against A/Victoria/361/2011-like (H3N2).
The test system of data set [5] is A/Perth/16/2009 (H3N2). Nature of the data set: microbe, parasite or virus in culture. The note with it: Influenza A virus, H3N2, MDCK, 72 h, read-out: EC50 against A/Perth/16/2009 (H3N2).
Data set [6] concerns A/Brisbane/59/2007 (H1N1).
The subject of data set [7] is A/Hong Kong/8/1968 (H3N2). Nature of the data set: microbe, parasite or virus in culture. To be noted: Influenza A virus, H3N2, MDCK, 72 h, read-out: EC50 against A/Hong Kong/8/1968 (H3N2).
Data set [8] is described as follows: Cytotoxicity to mock-infected MDCK cells (MTT). The note with it: dog.
The test system of data set [9] is A/California/7/2009 (H1N1). Nature of the data set: microbe, parasite or virus in culture. To be noted: Influenza A virus, H1N1, MDCK, 72 h, read-out: EC50 against A/California/7/2009 (H1N1).
The test system of data set [10] is A/Puerto Rico/8/1934 (H1N1). Nature of the data set: microbe, parasite or virus in culture. To be noted: Influenza A virus, H1N1, MDCK, 72 h, read-out: EC50 against A/Puerto Rico/8/1934 (H1N1).
In data set [11] the test system is B/Brisbane/60/2008. The data set can be described thus: microbe, parasite or virus in culture. To be noted: Influenza B virus, MDCK, 72 h, read-out: EC50 against B/Brisbane/60/2008.
For data set [12], the system named is B/Lee/40. Nature of the data set: microbe, parasite or virus in culture. The note with it: Influenza B virus, MDCK, 72 h, read-out: EC50 against B/Lee/40.
For data set [13], the system named is A/Hong Kong/8/1968 (H3N2).
Data set [14] has as its system B/Lee/40.
In data set [15] the test system is B/Brisbane/60/2008.
The subject of data set [16] is A/Perth/16/2009 (H3N2).
Data set [17] has as its system A/Brisbane/10/2007 (H3N2).
Data set [18] deals with A/Seoul/11/1988 (H3N2).
In data set [19] the test system is A/California/7/2009 (H1N1).
For data set [20], the system named is A/Puerto Rico/8/1934 (H1N1).
Data set [21] has as its system A/Victoria/361/2011-like (H3N2).
For data set [22], the system named is PR8 virus (viral proteins NP, HA, M1). It is filed as cell-based, influenza A virus.
A short description of data set [23]: in vitro. To be noted: dog.

Counter-ions that a name gives are not always drawn. Like-named read-outs stand apart in the source and are kept apart here.

On to `NC12CC3CC(CC(C3)C1)C2` [AMT, amantadine hydrochloride], for which the EC50 in data set [1] is 0.3 ± 0.1 µM; in [2] it was 1.2 ± 0.4 µM; in data set [3], more than 100 µM; in [4], more than 100 µM; in [5], more than 100 µM; in data set [7] it was 0.8 ± 0.1 µM. For the same molecule, the EC50 in data set [9], in data set [10], in data set [11] and in [12] was more than 100 µM throughout. In addition, in [6] (MDCK cells), the “S.I. (CC50/EC50), A/Brisbane/59/2007 (H1N1)” value was “(>750)”. In addition, the CC50 at 3 days in data set [8] was more than 900 µM. In data set [13], the “S.I. (CC50/EC50), A/Hong Kong/8/1968 (H3N2)” value was “(>1200)”.
As for `CN(C)C(=O)Oc1cc(OC(=O)N(C)C)cc(C(O)CNC(C)(C)C)c1` (stereo not shown) [Bambuterol, bambuterol], the EC50 in [7], in [10] and in data set [12] was more than 100 µM in each case. In data set [8], this molecule registered a CC50 at 3 days of more than 900 µM.
For the molecule `CC(NCCc1ccc(O)cc1)C(O)c1ccc(O)cc1` (stereo not shown) [Ritodrine, ritodrine], the EC50 in data set [7], in [10] and in data set [12] was more than 100 µM each time. The same molecule yielded a CC50 at 3 days in data set [8] of more than 900 µM.
Turning to `OC(CN1CCC(Cc2ccc(F)cc2)CC1)c1ccc(Cl)cc1` (stereo not shown) [Eliprodil, eliprodil], the EC50 in data set [1] is more than 100 µM; in data set [2] it was 53.1 ± 0.3 µM; in [3], more than 100 µM; in data set [4], more than 100 µM; in data set [5] it was more than 100 µM; in data set [7] it was more than 44 µM. Besides, the EC50 was more than 100 µM in [9]; more than 100 µM in [10]; more than 100 µM in data set [11]; more than 100 µM in [12]; 58.1 ± 6.4 µM in data set [13] (read-out: EC50 against A/Hong Kong/8/1968 (H3N2)). Further, the “S.I. (CC50/EC50), A/Brisbane/59/2007 (H1N1)” value in [6] (MDCK cells) is reported as “(>16.9)”. The molecule further returned a CC50 at 3 days in [8] of more than 900 µM. In addition, in data set [13], the “S.I. (CC50/EC50), A/Hong Kong/8/1968 (H3N2)” value was “(>15.5)”.
For the molecule `CCC(CC)O[C@@H]1C=C(C(=O)O)C[C@H](N)[C@H]1NC(C)=O` [OSV-C, oseltamivir carboxylate], the “S.I. (CC50/EC50), B/Lee/40” value in [14] is given as “(>1125)”. For the same molecule, the EC50 in data set [1] is less than 0.005 µM; in [2], 0.02 µM; in data set [3], 0.53 ± 0.16 µM; in [4], less than 0.005 µM; in data set [5], 0.03 ± 0.02 µM; in data set [7], less than 0.005 µM. Also, the EC50 in data set [9] is 0.02 µM; in data set [10] it was 0.04 ± 0.01 µM; in data set [11], 53.1 ± 25.2 µM; in data set [12], 0.8 ± 0.03 µM. In addition, the “S.I. (CC50/EC50), B/Brisbane/60/2008” value in [15] (MDCK cells) is “(>17.0)”. The “S.I. (CC50/EC50), A/Perth/16/2009 (H3N2)” value in [16] (MDCK cells) is given as “(>30,000)”. Also, the “S.I. (CC50/EC50), A/Brisbane/10/2007 (H3N2)” value in data set [17] was “(>1714)”. Moreover, the “S.I. (CC50/EC50), A/Seoul/11/1988 (H3N2)” value in data set [18] (MDCK cells) is on record as “(>180,000)”. Further, in data set [6] (MDCK cells), the “S.I. (CC50/EC50), A/Brisbane/59/2007 (H1N1)” value is “(>58,065)”. Moreover, the “S.I. (CC50/EC50), A/California/7/2009 (H1N1)” value in [19] (MDCK cells) is listed as “(>58,065)”. The “S.I. (CC50/EC50), A/Puerto Rico/8/1934 (H1N1)” value in data set [20] (MDCK cells) is reported as “(>25,714)”. The “S.I. (CC50/EC50), A/Victoria/361/2011-like (H3N2)” value in [21] (MDCK cells) is listed as “(>180,000)”. In addition, in data set [22] ([…], nylidrin 100 μM, OSV-C 10 μM, RBV 100 μM), the “viral proteins NP, HA and M1 (western blot)” value is “not detected”. Besides, in data set [13], the “S.I. (CC50/EC50), A/Hong Kong/8/1968 (H3N2)” value was “(>180,000)”. Besides, the CC50 at 3 days in data set [23] was more than 900 µM.
For `CC(CCc1ccccc1)NCC(O)c1ccc(O)c(C(N)=O)c1` (stereo not shown) [Labetalol, labetalol], the EC50 is more than 100 µM in [1]; more than 100 µM in [2]; more than 100 µM in [3]; more than 100 µM in data set [4]; more than 100 µM in [5]; 44 ± 9.7 µM in data set [7]. The EC50 in data set [9], in data set [10], in [11] and in data set [12] was more than 100 µM throughout. Also, the CC50 at 3 days in data set [8] was 498.1 ± 0.5 µM. In [13], the “S.I. (CC50/EC50), A/Hong Kong/8/1968 (H3N2)” value is given as “(>11.3)”.
With `NC(=O)c1ncn([C@@H]2O[C@H](CO)[C@@H](O)[C@H]2O)n1` [RBV, ribavirin], the “S.I. (CC50/EC50), B/Lee/40” value in data set [14] is given as “(>65.5)”. The EC50 in [1] is 10.5 ± 4.2 µM; in data set [2] it was 24.1 ± 0.5 µM; in data set [3] it was 12.6 ± 6.4 µM; in [4], 33.4 ± 8.8 µM; in [5], 33.8 ± 11.6 µM; in [7], 15.7 ± 2.7 µM. In addition, the EC50 in data set [9] amounted to 52.5 ± 1.5 µM; in [10], 18.4 ± 3.4 µM; in data set [11], 25.6 ± 0.3 µM; in data set [12], 13.8 ± 0.2 µM. In [15], the “S.I. (CC50/EC50), B/Brisbane/60/2008” value is “(>35.2)”. Besides, in [16], the “S.I. (CC50/EC50), A/Perth/16/2009 (H3N2)” value is listed as “(>26.6)”. Besides, the “S.I. (CC50/EC50), A/Brisbane/10/2007 (H3N2)” value in [17] is on record as “(>71.4)”. Moreover, the “S.I. (CC50/EC50), A/Seoul/11/1988 (H3N2)” value in data set [18] is “(>52.3)”. The “S.I. (CC50/EC50), A/Brisbane/59/2007 (H1N1)” value in [6] was “(>37.3)”. Also, in data set [8], the CC50 at 3 days was more than 900 µM. For the same molecule, the “S.I. (CC50/EC50), A/California/7/2009 (H1N1)” value in data set [19] is listed as “(>17.2)”. For the same molecule, in [20], the “S.I. (CC50/EC50), A/Puerto Rico/8/1934 (H1N1)” value is “(>48.9)”. In data set [21], the “S.I. (CC50/EC50), A/Victoria/361/2011-like (H3N2)” value is “(>16.4)”. Also, in data set [22], the “viral proteins NP, HA and M1 (western blot)” value is listed as “not detected”. The “S.I. (CC50/EC50), A/Hong Kong/8/1968 (H3N2)” value in [13] is “(>57.5)”.
For `CC(C)(C)NCC(O)c1cc(Cl)c(N)c(Cl)c1` (stereo not shown) [Clenbuterol, clenbuterol], the EC50 in [1] was more than 100 µM; in data set [2] it was 12.9 ± 0.3 µM; in data set [3], more than 100 µM; in data set [4] it was more than 100 µM; in data set [5], more than 100 µM; in [7] it was more than 100 µM. Moreover, the EC50 was 13.7 ± 3.6 µM in data set [9], 9.4 ± 4.6 µM in data set [10], more than 100 µM in data set [11] and more than 100 µM in [12]. Moreover, the “S.I. (CC50/EC50), A/Brisbane/59/2007 (H1N1)” value in data set [6] (MDCK cells) is “(>69.8)”. In data set [19] (MDCK cells), the “S.I. (CC50/EC50), A/California/7/2009 (H1N1)” value was “(>65.9)”. Moreover, in data set [20] (MDCK cells), the “S.I. (CC50/EC50), A/Puerto Rico/8/1934 (H1N1)” value is “(>96.3)”. In addition, the CC50 in data set [23] was more than 900 µM.
For `CC(Cc1ccc(O)cc1)NCC(O)c1cc(O)cc(O)c1` (stereo not shown) [Fenoterol, fenoterol], the EC50 in [7], in [10] and in [12] was more than 100 µM throughout. The CC50 in [23] was more than 900 µM.
Take `CC(C(O)c1ccc(O)cc1)N1CCC(Cc2ccccc2)CC1` (stereo not shown) [Ifenprodil, ifenprodil]: the EC50 in data set [1] was 37.9 ± 7.7 µM; in data set [2], 5.1 ± 0.3 µM; in [3] it was more than 100 µM; in data set [4], more than 100 µM; in data set [5], more than 100 µM; in [7] it was 16.9 ± 3 µM. For the same molecule, the EC50 was 1.1 ± 0.1 µM in data set [9], 6.6 ± 0.4 µM in [10], more than 100 µM in data set [11] and more than 100 µM in data set [12]. Besides, the “S.I. (CC50/EC50), A/Brisbane/59/2007 (H1N1)” value in [6] (MDCK cells) was “(96.7)”. Also, the CC50 at 3 days in [8] was determined as 488.2 ± 0.5 µM. The “S.I. (CC50/EC50), A/California/7/2009 (H1N1)” value in data set [19] (MDCK cells) was “(465.0)”. In addition, the “S.I. (CC50/EC50), A/Puerto Rico/8/1934 (H1N1)” value in data set [20] (MDCK cells) is on record as “(74.0)”. Also, in data set [13], the “S.I. (CC50/EC50), A/Hong Kong/8/1968 (H3N2)” value was “(29.0)”.

Values taken from paper PMC7290441 (Viruses, 2020).
